From US20250108036A1, “COMPOSITIONS FOR REMOVING SENESCENT CELLS AND USES THEREOF” (LIFECEUTIX CO., LTD., priority 2021, published 2025)

Experiments:
Format in all cases: in vivo, C57BL6J mice
[1] = system: lipofuscin; assay: lipofuscin (Sudan Black B) staining of muscle of naturally aged mice (Example 7-4); conditions: stained area, LX-112 70 mg/kg oral daily 21 days
Protocol: (§1) After 22-month-old female C57BL6J mice (purchased from KRIBB Laboratory Animal Resource Center) were adapted to the experimental environment for one week, the aged mice were randomized into an experimental group and a control group. 8-week-old mice that were not aged were used as controls. LX-112 was mixed with 0.5% CMC-Na solution (purchased from Sigma) and administered orally at a concentration of 70 mg/kg daily for 21 days. The control group was administered only the solution in the same volume. After drug administration was completed, the method described in each Example below was performed.
Mice was sacrificed and tissue sections from muscle tissue were prepared in the same manner as in Example 7-3. Lipofuscin is a degenerative abnormal complex of proteins and lipids produced in cell lysosomes with aging and is a marker of aging-related degeneration. The amount of lipofuscin was measured as follows: the sections were stained using Sudan Black B (purchased from Sigma) and photographed, and then the area of the stained area was calculated using the Image J program and quantified by normalizing it based on the total area.

[2] = system: urea, creatinine, Agtr1a mRNA; assay: kidney damage markers in naturally aged mice (Example 7-8); conditions: LX-112 70 mg/kg oral daily 21 days, aged untreated = 100%
Protocol: as §1
The amounts of urea and creatinine, markers of kidney damage, in serum collected from mice were measured by spectrophotometry using a kit (purchased from BioAssay Systems and Sigma). Additionally, the amount of Agtr1a mRNA, a kidney damage marker, was measured by qRT-PCR as described in Example 7-2. […] The amount of each factor after inducing aging was calculated as 100% and compared with the amount of each factor after treatment with LX-112.

[3] = system: MMP3, IL1β, MMP12, IL6, MMP13; assay: SASP mRNA qRT-PCR in organ tissues of naturally aged mice (Example 7-6); conditions: LX-112 70 mg/kg oral daily 21 days, aged untreated = 100%
Protocol: as §1
Using cDNA synthesized in the same manner as in Example 7-2, qRT-PCR was performed and analyzed for MMP3, IL1β, MMP12, IL6, and MMP13, which are aging-related inflammation and fibrosis secretory factors (SASP). […] Table 31 calculates the mRNA amount of each factor after senescence was induced as 100% and compared it with the mRNA amount of each factor after treatment with LX-112.

[4] = system: IL6, MCP1; assay: serum IL6 and MCP1 ELISA in naturally aged mice (Example 7-5); conditions: LX-112 70 mg/kg oral daily 21 days
Protocol: as §1
Serum collected from mice was stored at −80° C. until use. The amounts of IL6 and MCP1, which are aging-related inflammation secretory factors (SASPs), were measured in serum using an enzyme-linked immunosorbent assay (ELISA Kit, purchased from R&D Systems).

[5] = system: p16, p21; assay: p16 and p21 mRNA qRT-PCR in doxorubicin-aged mice (Example 8-2); conditions: doxorubicin-aged mice, LX-112 70 mg/kg oral daily 21 days; DOX without LX = 100%
Protocol: After adapting 8-week-old male C57BL6J mice (purchased from KRIBB Laboratory Animal Resource Center) to the experimental environment for 1 week, doxorubicin, an anticancer drug, was administered intraperitoneally at a concentration of 10 mg/kg, and mice that were induced to age for more than 10 days were assigned to an experimental group and a control group. LX-112 was mixed with 0.5% CMC-Na solution (purchased from Sigma) and administered orally at a concentration of 70 mg/kg daily for 21 days. The control group was administered only the solution in the same volume. After drug administration was completed, the method described in each Example below was performed.
The mouse was sacrificed in the same manner as in Example 7-2, RNA was extracted from the organ tissue of each region, and qRT-PCR was performed and analyzed using the synthesized cDNA. […] Table 37 calculates the mRNA amounts of p16 and p21 after aging was induced by treatment with the anticancer drug as 100% and compared them with the mRNA amounts of p16 and p21 after treatment with LX-112.

[6] = system: p16; assay: p16 mRNA qRT-PCR in organ tissues of naturally aged mice (Example 7-2); conditions: LX-112 70 mg/kg oral daily 21 days, aged untreated = 100%
Protocol: as §1
The mouse was sacrificed, RNA was extracted from the organ tissue of each region, and qRT-PCR was performed using the synthesized cDNA. Specifically, in order to maintain the quality of RNA during the RNA extraction process, the tissue from each collected area was immediately cut into 30 mg to 50 mg pieces, placed in RNA stabilization solution (purchased from Thermo Fisher Scientific), and absorbed into the tissue for 1 day. Afterwards, it was stored at −80° C. until use. The collected tissue was placed together with the lysate in a tube containing beads for tissue homogenization (purchased from MP Bio) and homogenized using tissue homogenization equipment (purchased from MP Bio). Total RNA was extracted from the homogenized tissues. The extraction method used an RNA extraction kit (PureLink RNA Mini Kit, purchased from Thermo Fisher Scientific) for soft tissues including liver, kidney, lung, and brain, or TRIzol Reagent (purchased from Thermo Fisher Scientific) for hard tissues including muscle, skin, fat, etc. The concentration of extracted total RNA was quantified using Nanodrop (purchased from Micro Digital) or SpectraMax iD3 Multi-Mode Microplate Reader (purchased from Molecular Device). Genomic DNA was removed from the extracted total RNA using a cDNA synthesis kit (purchased from Thermo Fisher Scientific), and cDNA was prepared. Using the synthesized cDNA, qRT-PCR was performed for each gene using the housekeeping gene β-actin as a standard, using Taqman Fast Abvanced Master Mix (purchased from Applied Biosystems), SFCgreen I qPCR Master Mix (purchased from SFC Probe), or AmfiSure qGreen qPCR Master Mix (purchased from GenDEPOT), and analyzed using the CFX Connect Real-Time PCR Detection System (purchased from Bio Rad). […] Table 22 calculates the amount of p16 mRNA after senescence was induced as 100% and compared it with the amount of p16 mRNA after treatment with LX-112. The primers used were synthesized through bionics, except that TaqMan primers (purchased from Thermo Fisher Scientific) were used for p16 and IL6.

**Q.** What does the source list for O=c1c2ccccc2[se]n1CCn1[se]c2ccccc2c1=O [LX-112, 1,2-[bis(1,2-benzisoselenazolone-3(2H)-ketone)]ethane]?
**A.** Lipofuscin (%) Muscle [1]: 71 (±6) %; Agtr1a mRNA (%) ([2]; kidney damage marker): 64 (±7) %; Creatinine (%) ([2]; serum): 87 (±7.8) %; Urea (%) ([2]; serum): 69 (±6) %; mRNA (%) Kidney IL1β [3]: 67 (±3.9) %; mRNA (%) Liver MMP3 [3]: 75 (±13) %; mRNA (%) Lung MMP 12 [3]: 81 (±13) %; mRNA (%) Muscle IL6 [3]: 65 (±21) %; mRNA (%) Skin MMP3 [3]: 92 (±6) %; mRNA (%) Skin MMP12 [3]: 78 (±14) %; mRNA (%) Skin MMP13 [3]: 95 (±2) %; IL6 (%) [4]: 63 (±12.8) %; MCP1 (%) [4]: 58 (±9.8) %; p16 mRNA (%) Kidney [5]: 75 (±14.81) %; p16 mRNA (%) Liver [5]: 70 (±8.3) %; p16 mRNA (%) eWAT [5]: 72 (±18.75) %; p21 mRNA (%) Kidney [5]: 83.8 (±9.5)^ %; p21 mRNA (%) Liver [5]: 78 (±11.5) %; p21 mRNA (%) eWAT [5]: 68.4 (±15.1)^ %; p16 mRNA (%) Brain [6]: 89 (±5) %; p16 mRNA (%) Kidney [6]: 52 (±7.9) %; p16 mRNA (%) Liver [6]: 62 (±3.5) %; p16 mRNA (%) Lung [6]: 69 (±1) %; p16 mRNA (%) Muscle [6]: 76 (±3.1) %; p16 mRNA (%) Skin [6]: 74 (±6.7) %; p16 mRNA (%) eWAT [6]: 79 (±2) %
